Measured values as given in ChEMBL document CHEMBL1201862, “PubChem BioAssay data set” (2004).
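In this assay, cells in 96-well plates receive the compound at five concentrations for 48 hours. Endpoints are linearly interpolated between the surrounding concentrations. At the GI50, growth is halved.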 Active and inactive are the calls of the source. No stated cut-off is given here; in the data, active = GI50 up to about 1.1 µM and inactive = higher.

How the values were obtained:
Assay in all cases: growth of human tumour cells (NCI), 48 h
[1] = tested on: BT-549
[2] = tested on: SNB-75
[3] = tested on: NCI-H460
[4] = tested on: HCT-116
[5] = tested on: OVCAR-5
[6] = tested on: UO-31
[7] = tested on: DU-145
[8] = tested on: KM12
[9] = tested on: NCI-H23
[10] = tested on: 786-0
[11] = tested on: HOP-62
[12] = tested on: HT-29
[13] = tested on: MDA-MB-231
[14] = tested on: MDA-MB-435
[15] = tested on: SR
[16] = tested on: CCRF-CEM
[17] = tested on: SK-OV-3
[18] = tested on: SK-MEL-28
[19] = tested on: K562
[20] = tested on: PC-3
[21] = tested on: HCC 2998
[22] = tested on: SN12C
[23] = tested on: M14
[24] = tested on: Hs-578T
[25] = tested on: NCI-H226
[26] = tested on: OVCAR-4
[27] = tested on: U-251
[28] = tested on: Malme-3M
[29] = tested on: HOP-92
[30] = tested on: SF-268
[31] = tested on: A498
[32] = tested on: EKVX
[33] = tested on: COLO 205
[34] = tested on: OVCAR-8
[35] = tested on: SNB-19
[36] = tested on: CAKI-1
[37] = tested on: SF-295
[38] = tested on: SW-620
[39] = tested on: RXF 393
[40] = tested on: UACC-62
[41] = tested on: A549
[42] = tested on: SK-MEL-5
[43] = tested on: UACC-257
[44] = tested on: OVCAR-3
[45] = tested on: IGROV-1
[46] = tested on: RPMI-8226
[47] = tested on: NCI-H522
[48] = tested on: HCT-15
[49] = tested on: HL-60
[50] = tested on: SF-539
[51] = tested on: TK-10
[52] = tested on: T47D
[53] = tested on: MOLT-4
[54] = tested on: ACHN
[55] = tested on: NCI/ADR-RES
[56] = tested on: LOX IMVI
[57] = tested on: MCF7
[58] = tested on: MDA-N
[59] = tested on: SK-MEL-2

Q: What does the source list for `COC1C=COC2(C)Oc3c(C)c(O)c4c(c3C2=O)/C(=N/C2CCC(O)OC2C)C=C(NC(=O)/C(C)=C\C(=O)C2CC2C(O)C(C)C(O)C(C)C(OC(C)=O)C1C)C4=O` (centres undefined)?
A: GI50 [1]: 2.44 µM (inactive); GI50 [2]: 3.09 µM (inactive); GI50 [3]: 3.26 µM (inactive); GI50 [4]: 1.79 µM (inactive); GI50 [5]: 2.88 µM (inactive); GI50 [6]: 2.52 µM (inactive); GI50 [7]: 2.54 µM (inactive); GI50 [8]: 2.84 µM (inactive); GI50 [9]: 1.79 µM (inactive); GI50 [10]: 1.66 µM (inactive); GI50 [11]: 3.04 µM (inactive); GI50 [12]: 1.15 µM (inactive); GI50 [13]: 2.07 µM (inactive); GI50 [14]: 1.79 µM (inactive); GI50 [15]: 1.7 µM (inactive); GI50 [16]: 474 nM (active); GI50 [17]: 7.96 µM (inactive); GI50 [18]: 2.05 µM (inactive); GI50 [19]: 2.22 µM (inactive); GI50 [20]: 2.3 µM (inactive); GI50 [21]: 2.47 µM (inactive); GI50 [22]: 1.61 µM (inactive); GI50 [23]: 1.97 µM (inactive); GI50 [24]: 2.41 µM (inactive); GI50 [25]: 2.65 µM (inactive); GI50 [26]: 3.09 µM (inactive); GI50 [27]: 2.77 µM (inactive); GI50 [28]: 1.69 µM (inactive); GI50 [29]: 2.07 µM (inactive); GI50 [30]: 2.97 µM (inactive); GI50 [31]: 3.05 µM (inactive); GI50 [32]: 3.13 µM (inactive); GI50 [33]: 1.33 µM (inactive); GI50 [34]: 1.69 µM (inactive); GI50 [35]: 3.47 µM (inactive); GI50 [36]: 3.24 µM (inactive); GI50 [37]: 3.72 µM (inactive); GI50 [38]: 1.88 µM (inactive); GI50 [39]: 1.86 µM (inactive); GI50 [40]: 2.01 µM (inactive); GI50 [41]: 3.48 µM (inactive); GI50 [42]: 1.95 µM (inactive); GI50 [43]: 2.22 µM (inactive); GI50 [44]: 365 nM (active); GI50 [45]: 2.4 µM (inactive); GI50 [46]: 962 nM (active); GI50 [47]: 946 nM (active); GI50 [48]: 2940 nM; GI50 [49]: 2.14 µM (inactive); GI50 [50]: 2.33 µM (inactive); GI50 [51]: 2.9 µM (inactive); GI50 [52]: 2.69 µM (inactive); GI50 [53]: 1.94 µM (inactive); GI50 [54]: 3.13 µM (inactive); GI50 [55]: 14.2 µM (inactive); GI50 [56]: 1.61 µM (inactive); GI50 [57]: 1.89 µM (inactive); GI50 [58]: 1.88 µM (inactive); GI50 [59]: 3.48 µM (inactive)
